Test results published in patent EP0800503B1, “NOVEL TRIENOIC RETINOID COMPOUNDS AND METHODS” (LIGAND PHARMACEUTICALS, INC., priority 1994, dated 1996).
Read-outs that look alike come from different tables or passages of the source.

Legend:
RARα [1] = molecular target: T1, RARα (Homo sapiens, UniProt P10276); experiment: Receptor binding (competition with tritiated retinoids); settings: from IC50 by Cheng-Prussof equation
T1 sequence (P10276 1-462): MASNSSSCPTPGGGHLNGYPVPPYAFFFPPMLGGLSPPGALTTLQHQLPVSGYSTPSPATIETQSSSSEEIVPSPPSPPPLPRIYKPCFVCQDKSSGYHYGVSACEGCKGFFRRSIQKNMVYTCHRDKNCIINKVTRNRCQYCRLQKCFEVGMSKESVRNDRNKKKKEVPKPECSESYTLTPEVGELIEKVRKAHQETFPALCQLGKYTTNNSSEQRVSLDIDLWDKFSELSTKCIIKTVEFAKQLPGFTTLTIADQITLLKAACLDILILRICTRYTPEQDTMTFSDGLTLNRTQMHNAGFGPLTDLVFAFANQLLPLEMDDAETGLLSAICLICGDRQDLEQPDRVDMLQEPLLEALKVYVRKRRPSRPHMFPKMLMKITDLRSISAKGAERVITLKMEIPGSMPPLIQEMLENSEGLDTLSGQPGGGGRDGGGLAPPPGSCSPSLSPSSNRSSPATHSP

RARβ = molecular target: T2, RARβ (Homo sapiens, UniProt P10826); experiment: Co-transfection assay; assay type: cell-based; settings: read-out: RARβ Pot
T2 sequence (P10826 1-448 isoform P10826-2): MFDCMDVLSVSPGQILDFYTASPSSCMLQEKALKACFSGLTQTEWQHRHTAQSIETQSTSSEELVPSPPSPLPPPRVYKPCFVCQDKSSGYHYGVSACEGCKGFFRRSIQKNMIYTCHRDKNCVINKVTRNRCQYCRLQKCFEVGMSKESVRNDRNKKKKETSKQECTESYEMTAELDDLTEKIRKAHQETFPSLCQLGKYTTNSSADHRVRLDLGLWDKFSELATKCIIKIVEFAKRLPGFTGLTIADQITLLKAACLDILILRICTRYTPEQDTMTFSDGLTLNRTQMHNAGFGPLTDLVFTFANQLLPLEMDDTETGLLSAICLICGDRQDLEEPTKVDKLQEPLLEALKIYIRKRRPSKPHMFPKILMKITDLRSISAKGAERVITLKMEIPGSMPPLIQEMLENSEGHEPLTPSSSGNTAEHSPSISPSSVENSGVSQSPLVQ

RXRγ = molecular target: T3, RXRγ (Mus musculus, UniProt P28705); experiment: Co-transfection assay; assay type: cell-based; settings: read-out: RXRγ Pot
T3 sequence (P28705 1-463): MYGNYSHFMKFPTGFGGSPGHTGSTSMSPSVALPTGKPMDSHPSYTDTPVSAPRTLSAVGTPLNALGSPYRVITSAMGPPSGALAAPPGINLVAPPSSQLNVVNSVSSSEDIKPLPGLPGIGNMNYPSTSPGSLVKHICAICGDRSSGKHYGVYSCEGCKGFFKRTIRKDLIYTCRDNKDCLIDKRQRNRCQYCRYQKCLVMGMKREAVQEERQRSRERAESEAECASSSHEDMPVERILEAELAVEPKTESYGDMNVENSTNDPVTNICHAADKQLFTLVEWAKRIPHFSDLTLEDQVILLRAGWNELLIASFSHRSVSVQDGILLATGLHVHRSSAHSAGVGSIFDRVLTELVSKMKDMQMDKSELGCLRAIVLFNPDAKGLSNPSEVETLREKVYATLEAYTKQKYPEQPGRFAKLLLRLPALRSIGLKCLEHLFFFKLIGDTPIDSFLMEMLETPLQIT

RXRα = molecular target: T4, RXRα (Homo sapiens, UniProt P19793); experiment: Co-transfection assay; assay type: cell-based; settings: read-out: RXRα Pot
T4 sequence (P19793 1-462): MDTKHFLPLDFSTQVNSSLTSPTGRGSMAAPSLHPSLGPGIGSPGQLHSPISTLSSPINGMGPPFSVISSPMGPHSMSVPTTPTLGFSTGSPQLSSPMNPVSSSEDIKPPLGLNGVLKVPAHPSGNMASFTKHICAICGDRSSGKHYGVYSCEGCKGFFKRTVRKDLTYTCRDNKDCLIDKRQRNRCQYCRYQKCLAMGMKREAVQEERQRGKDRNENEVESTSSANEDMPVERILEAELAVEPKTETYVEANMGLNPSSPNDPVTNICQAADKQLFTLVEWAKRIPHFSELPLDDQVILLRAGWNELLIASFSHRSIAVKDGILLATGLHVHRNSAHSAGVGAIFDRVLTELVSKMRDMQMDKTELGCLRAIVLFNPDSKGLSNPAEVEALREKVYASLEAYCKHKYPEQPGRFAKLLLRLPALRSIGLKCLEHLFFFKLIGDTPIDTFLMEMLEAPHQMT

RXRβ = molecular target: T5, RXRβ (Mus musculus, UniProt P28704); experiment: Co-transfection assay; assay type: cell-based; settings: read-out: RXRβ Pot
T5 sequence (P28704 1-520): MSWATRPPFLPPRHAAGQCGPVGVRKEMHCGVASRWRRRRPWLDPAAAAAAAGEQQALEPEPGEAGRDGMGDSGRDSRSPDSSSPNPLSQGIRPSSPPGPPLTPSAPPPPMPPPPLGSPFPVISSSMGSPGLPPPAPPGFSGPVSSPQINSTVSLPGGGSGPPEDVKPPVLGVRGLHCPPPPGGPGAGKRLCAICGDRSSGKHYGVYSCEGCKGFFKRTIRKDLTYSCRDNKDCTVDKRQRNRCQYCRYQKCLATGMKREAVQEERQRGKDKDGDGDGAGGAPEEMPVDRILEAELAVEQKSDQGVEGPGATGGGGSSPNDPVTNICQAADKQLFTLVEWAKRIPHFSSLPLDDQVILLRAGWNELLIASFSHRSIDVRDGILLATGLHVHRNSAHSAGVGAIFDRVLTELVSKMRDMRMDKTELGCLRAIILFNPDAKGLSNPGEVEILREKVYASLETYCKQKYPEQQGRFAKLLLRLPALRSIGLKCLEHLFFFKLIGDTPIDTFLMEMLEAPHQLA

RARα [2] = molecular target: T1, RARα; experiment: Co-transfection assay; assay type: cell-based; settings: read-out: RARα Pot
RARγ = molecular target: T6, RARγ (Homo sapiens, UniProt P13631); experiment: Co-transfection assay; assay type: cell-based; settings: read-out: RARγ Pot
T6 sequence (P13631 1-454): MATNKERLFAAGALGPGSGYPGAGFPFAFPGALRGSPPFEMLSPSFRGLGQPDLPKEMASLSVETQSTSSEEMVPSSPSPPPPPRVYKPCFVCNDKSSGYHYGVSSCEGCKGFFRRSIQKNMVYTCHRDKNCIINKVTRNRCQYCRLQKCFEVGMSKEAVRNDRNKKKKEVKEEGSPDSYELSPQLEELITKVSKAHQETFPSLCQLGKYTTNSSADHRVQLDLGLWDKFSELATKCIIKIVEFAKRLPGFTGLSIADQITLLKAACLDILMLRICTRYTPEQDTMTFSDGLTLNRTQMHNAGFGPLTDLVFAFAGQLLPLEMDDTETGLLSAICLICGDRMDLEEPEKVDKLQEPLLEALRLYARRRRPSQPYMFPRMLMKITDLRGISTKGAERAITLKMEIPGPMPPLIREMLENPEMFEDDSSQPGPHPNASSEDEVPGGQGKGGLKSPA

AML-193 cell line = experiment: Viability (tetrazolium dye, MTS); assay type: cell-based; settings: Homo sapiens, 96 hours, mitochondrial function / viability
ME 180 cell line = experiment: Viability (tetrazolium dye, MTS); assay type: cell-based; settings: Homo sapiens, 96 hours, mitochondrial function / viability
RPMI 8226 cell line = experiment: Viability (tetrazolium dye, MTS); assay type: cell-based; settings: Homo sapiens, 96 hours, mitochondrial function / viability
TPA induction of ODC = experiment: Ornithine decarboxylase (ODC) assay, inhibition of TPA induction of ODC; assay type: cell-based; settings: concentration required to inhibit the TPA induction of ODC by 80 percent

Molecule	EC50 (RARβ)	EC50 (RXRγ)	EC50 (RXRα)	EC50 (RXRβ)	EC50 (RARα [2])	EC50 (RARγ)	other results
COc1ccc(/C(C)=C/C=C/C(C)=C/C(=O)O)cc1OC [A, (2E,4E,6E)-3-methyl-7-(3,4-dimethoxyphenyl)octa-2,4,6-trienoic acid, reference compound]	1480 nM	> 10000 nM	> 10000 nM	> 10000 nM	> 10000 nM	> 10000 nM	Kd (RARα [1]): 312 nM
CC1=C(/C=C/C(C)=C/C=C/C(C)=C/C(=O)O)C(C)(C)CCC1 [ATRA, all-trans retinoic acid, reference compound]	–	–	–	–	–	–	IC50 (AML-193 cell line): 1000 nM; IC50 (ME 180 cell line): 890 nM; IC50 (RPMI 8226 cell line): 756 nM
COc1ccc(/C(C)=C/C=C/C(C)=C/C(=O)O)cc1 [B, (2E,4E,6E)-3-methyl-7-(4-methoxyphenyl)octa-2,4,6-trienoic acid, reference compound]	> 10000 nM	> 10000 nM	> 10000 nM	> 10000 nM	> 10000 nM	> 10000 nM	–
COc1cc(C)c(/C=C/C=C/C=C(\C)C(=O)O)c(C)c1C [C, (2E,4E,6E)-2-methyl-7-(2,3,6-trimethyl-4-methoxyphenyl)hepta-2,4,6-trienoic acid, reference compound]	> 10000 nM	> 10000 nM	> 10000 nM	> 10000 nM	> 10000 nM	> 10000 nM	–
CCOC(=O)/C=C(C)/C=C/C=C(\C)c1cc(C(C)(C)C)cc(C(C)(C)C)c1 [Compound 7, Ethyl (2E, 4E, 6E)-7-(3,5-di-t-butylphenyl)-3-methylocta-2,4,6-trienoate]	–	–	–	–	–	–	IC80 (TPA induction of ODC): 4.73 nM
CCOC(=O)/C=C(C)/C=C/C=C(/C)c1cc(C(C)(C)C)cc(C(C)(C)C)c1 [Compound 8, Ethyl (2E,4E, 6Z)-7-(3,5-di-t-butylphenyl)-3-methylocta-2,4,6-trienoate]	–	–	–	–	–	–	IC80 (TPA induction of ODC): 152 nM
(2E,4E,6Z)-3-Methyl-7-(3,4-diethyl-6-methylphenyl)nona-2,4,6-trienoic acid [Compound 54]	–	–	–	–	–	–	EC50 (RARβ; CV-1 cells, pRShRARβ, D-MTV-LUC reporter, 40 hours, potency = EC50): 130 nM; EC50 (RXRγ; CV-1 cells, pRSmRXRγ, CRBPIIFKLUC reporter, 40 hours, potency = EC50): 78 nM; EC50 (RXRα; CV-1 cells, pRShRXRα, CRBPIIFKLUC reporter, 40 hours, potency = EC50): 58 nM; EC50 (RXRβ; CV-1 cells, pRSmRXRβ, CRBPIIFKLUC reporter, 40 hours, potency = EC50): 28 nM; EC50 (RARα [2]; CV-1 cells, pRShRARα, D-MTV-LUC reporter, 40 hours, potency = EC50): > 10000 nM; EC50 (RARγ; CV-1 cells, pRShRARγ, D-MTV-LUC reporter, 40 hours, potency = EC50): 320 nM

Continued, in another order:

EC50 (RARβ)	EC50 (RXRγ)	EC50 (RXRα)	EC50 (RXRβ)	EC50 (RARα [2])	EC50 (RARγ)	Molecule	other results
> 10000 nM	50 nM	20 nM	104 nM	> 10000 nM	> 10000 nM	CCC/C(=C/C=C/C(C)=C/C(=O)O)c1cc(C(C)(C)C)cc(C(C)(C)C)c1 [Compound 28, (2E, 4E, 6Z)-7-(3,5-di-t-butylphenyl)-3-methyldeca-2,4,6-trienoic acid]	–
3 nM	> 10000 nM	> 10000 nM	> 10000 nM	5 nM	3 nM	CC(/C=C/C=C1\CCOc2c1cc(C(C)(C)C)cc2C(C)(C)C)=C\C(=O)O [Compound 39, (2E,4E,6E)-6-(6,8,-Di-t-butylchroman-4-ylidene)-3-methylhexa-2,4,6-trienoic acid]	–
1 nM	2180 nM	2010 nM	266 nM	3 nM	4 nM	CC(/C=C/C=C(\C)c1cc(C(F)(F)F)cc(C(F)(F)F)c1)=C\C(=O)O [Compound 41, (2E, 4E, 6E)-7-(3,5-Di-trifluoromethylphenyl)-3-methylocta-2,4,6-trienoic acid]	–
22 nM	19 nM	27 nM	27 nM	65 nM	16 nM	C/C(=C/C=C/C(C)=C/C(=O)O)c1cc(C(C)C)cc(C(C)C)c1 [Compound 43, (2E, 4E, 6Z)-7-(3,5-Di-isopropylphenyl)-3-methylocta-2,4,6-trienoic acid]	–
1 nM	> 10000 nM	> 10000 nM	> 10000 nM	> 10000 nM	1 nM	COc1c(C(C)(C)C)cc(/C(C)=C/C=C/C(C)=C/C(=O)O)cc1C(C)(C)C [Compound 47, (2E, 4E, 6E) -3-Methyl-7-(3,5-di-t-butyl-4-methoxyphenyl)octa-2,4,6-trienoic acid]	–
> 10000 nM	> 10000 nM	> 10000 nM	> 10000 nM	> 10000 nM	> 10000 nM	COC(/C=C/C=C(\C)c1ccc(C(C)(C)C)cc1)=C/C(=O)O [D, (2E,4E,6E)-3-methoxy-7-(4-t-butylphenyl)octa-2,4,6-trienoic acid, reference compound]	–
